The source of these data is patent publication US9353084B2, “2-amino 3,5,5-trifluoro-3,4,5,6-tetrahydropyridines as BACE1 inhibitors for treatment of Alzheimer's disease” (H. Lundbeck A/S, priority 2014, dated 2016).

Each structure is given as a SMILES string. pKi: −log10 of the molar value.

Sequence of human BACE1 (P56817 46-501): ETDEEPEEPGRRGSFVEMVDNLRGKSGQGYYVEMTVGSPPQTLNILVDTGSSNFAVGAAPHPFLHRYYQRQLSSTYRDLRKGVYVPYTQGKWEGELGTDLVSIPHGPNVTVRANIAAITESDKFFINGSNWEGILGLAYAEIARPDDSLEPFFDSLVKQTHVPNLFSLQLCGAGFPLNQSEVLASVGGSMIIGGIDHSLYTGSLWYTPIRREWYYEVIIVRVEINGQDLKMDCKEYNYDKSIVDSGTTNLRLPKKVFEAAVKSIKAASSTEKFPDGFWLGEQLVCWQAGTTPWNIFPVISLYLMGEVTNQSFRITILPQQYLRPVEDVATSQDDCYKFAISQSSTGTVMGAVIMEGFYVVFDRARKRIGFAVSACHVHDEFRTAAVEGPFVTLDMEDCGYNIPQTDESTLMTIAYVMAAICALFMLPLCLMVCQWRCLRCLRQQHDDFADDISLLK

The target in this experiment is human BACE1 (Homo sapiens (Human), UniProt P56817). The experiment can be described thus: BACE1 binding assay (SPA-based, radioligand displacement). The settings on record: pH 4.5, Ki calculated from IC50. The procedure:
The binding assay was performed as SPA-based assay using a biotinylated form of human BACE1 recombinantly expressed and subsequently purified from Freestyle HEK293 cells. The binding assay was run in a 50 mM sodium acetate buffer, pH 4.5 containing 50 mM NaCl and 0.03% Tween-20 in white clear bottom 384 plates (Corning #3653). 10 nM (final concentration) radioligand ([^3H]—N-((1S,2R)-1-benzyl-3-cyclopropylamino-2-hydroxy-propyl)-5-(methanesulfonyl-methyl-amino)-N—((R)-1-phenyl-ethyl)-isophthalamide) (TRQ11569 purchased from GE Healthcare) was mixed with test compound at a given concentration, 6 nM (final concentration) human BACE1 and 25 μg Streptavidin coated PVT core SPA beads (RPNQ0007, GE Healthcare Life Sciences) in a total volume of 40 μl. Several concentrations of each test compound were tested in the assay for IC50 determination. The plates were incubated for one hour at room temperature and counted in a Wallac Trilux counter. Total and non-specific binding were determined using buffer and 1 μM (final concentration) of the high affinity BACE1 reference inhibitor (S)-6-[3-chloro-5-(5-prop-1-ynyl-pyridin-3-yl)-thiophen-2-yl]-2-imino-3,6-dimethyl-tetrahydro-pyrimidin-4-one, respectively. For each test compound, a IC50 value (the concentration mediating 50% inhibition of the specific binding of the radioligand) was determined from concentration-response curve and used to calculate the Ki from the equation Ki=IC50/(1+L/Kd), where L and Kd are the final concentration of the radioligand used in the assay and the dissociation constant of the radioligand, respectively. The Kd of the radioligand was determined from saturation binding experiments.
Consider `C[C@@]1(F)CC(F)(F)[C@@](C)(c2cc(NC(=O)c3ccc(F)cn3)ccc2F)N=C1N` [Compound 2, N-(3-((2R,5R)-6-amino-3,3,5-trifluoro-2,5-dimethyl-2,3,4,5-tetrahydropyridin-2-yl)-4-fluorophenyl)-5-fluoropicolinamide], for which the negative-log Ki (pKi) (in general, the negative decadic logarithm of the Ki, by convention in mol/L) was 6.68.

Regarding `C[C@]1(F)CC(F)(F)[C@@](C)(c2cc(NC(=O)c3ccc(Cl)cn3)ccc2F)N=C1N` [Compound 3, N-(3-((2R,5S)-6-amino-3,3,5-trifluoro-2,5-dimethyl-2,3,4,5-tetrahydropyridin-2-yl)-4-fluorophenyl)-5-chloropicolinamide], the negative logarithm of the Ki (pKi) is 7.92.

Regarding `C[C@]1(F)CC(F)(F)[C@@](C)(c2cc(NC(=O)c3ccc(C#N)cn3)ccc2F)N=C1N` [Compound 4, N-(3-((2R,5S)-6-amino-3,3,5-trifluoro-2,5-dimethyl-2,3,4,5-tetrahydropyridin-2-yl)-4-fluorophenyl)-5-cyanopicolinamide], the negative logarithm of the Ki (pKi) was 7.96.

`C[C@]1(F)CC(F)(F)[C@@](C)(c2cc(NC(=O)c3ccn(C(F)F)n3)ccc2F)N=C1N` [Compound 6, N-(3-((2R,5S)-6-amino-3,3,5-trifluoro-2,5-dimethyl-2,3,4,5-tetrahydropyridin-2-yl)-4-fluorophenyl)-1-(difluoromethyl)-1H-pyrazole-3-carboxamide]: the negative logarithm of the Ki (pKi) is 7.72.

For `Cc1nc(C(=O)Nc2ccc(F)c([C@@]3(C)N=C(N)[C@@](C)(F)CC3(F)F)c2)co1` [Compound 7, N-(3-((2R,5S)-6-amino-3,3,5-trifluoro-2,5-dimethyl-2,3,4,5-tetrahydropyridin-2-yl)-4-fluorophenyl)-2-methyloxazole-4-carboxamide], the pKi was 7.48.

On to `C[C@]1(F)CC(F)(F)[C@@](C)(c2cc(NC(=O)c3nccs3)ccc2F)N=C1N` [Compound 8, N-(3-((2R,5S)-6-amino-3,3,5-trifluoro-2,5-dimethyl-2,3,4,5-tetrahydropyridin-2-yl)-4-fluorophenyl) thiazole-2-carboxamide], for which the pKi was 7.18.

`Cn1cc(Br)nc1C(=O)Nc1ccc(F)c([C@@]2(C)N=C(N)[C@@](C)(F)CC2(F)F)c1` [Compound 9, N-(3-((2R,5S)-6-amino-3,3,5-trifluoro-2,5-dimethyl-2,3,4,5-tetrahydropyridin-2-yl)-4-fluorophenyl)-4-bromo-1-methyl-1H-imidazole-2-carboxamide]: the pKi was 7.00.

Turning to `Cc1csc(C(=O)Nc2ccc(F)c([C@@]3(C)N=C(N)[C@@](C)(F)CC3(F)F)c2)n1` [Compound 10, N-(3-((2R,5S)-6-amino-3,3,5-trifluoro-2,5-dimethyl-2,3,4,5-tetrahydropyridin-2-yl)-4-fluorophenyl)-4-methylthiazole-2-carboxamide], the pKi is 7.36.

As for `C[C@]1(F)CC(F)(F)[C@@](C)(c2cc(NC(=O)c3ccc(C(F)(F)F)cn3)ccc2F)N=C1N` [Compound 11, N-(3-((2R,5S)-6-amino-3,3,5-trifluoro-2,5-dimethyl-2,3,4,5-tetrahydropyridin-2-yl)-4-fluorophenyl)-5-(trifluoromethyl)picolinamide], the pKi was 7.20.

As to `COc1cnc(C(=O)Nc2ccc(F)c([C@@]3(C)N=C(N)[C@@](C)(F)CC3(F)F)c2)nc1` [Compound 12, N-(3-((2R,5S)-6-amino-3,3,5-trifluoro-2,5-dimethyl-2,3,4,5-tetrahydropyridin-2-yl)-4-fluorophenyl)-5-methoxypyrimidine-2-carboxamide], the pKi is 7.54.

For `C[C@]1(F)CC(F)(F)[C@@](C)(c2cc(NC(=O)c3nc(CF)co3)ccc2F)N=C1N` [Compound 14, N-(3-((2R,5S)-6-amino-3,3,5-trifluoro-2,5-dimethyl-2,3,4,5-tetrahydropyridin-2-yl)-4-fluorophenyl)-4-(fluoromethyl)oxazole-2-carboxamide], the negative-log Ki (pKi) is 7.43.

As for `C[C@]1(F)CC(F)(F)[C@@](C)(c2cc(NC(=O)c3nc(CF)cs3)ccc2F)N=C1N` [Compound 15, N-(3-((2R,5S)-6-amino-3,3,5-trifluoro-2,5-dimethyl-2,3,4,5-tetrahydropyridin-2-yl)-4-fluorophenyl)-4-(fluoromethyl)thiazole-2-carboxamide], the negative logarithm of the Ki (pKi) was 7.34.

Turning to `C[C@]1(F)CC(F)(F)[C@@](C)(c2cc(NC(=O)c3cnc(C(F)F)cn3)ccc2F)N=C1N` [Compound 16, N-(3-((2R,5S)-6-amino-3,3,5-trifluoro-2,5-dimethyl-2,3,4,5-tetrahydropyridin-2-yl)-4-fluorophenyl)-5-(difluoromethyl)pyrazine-2-carboxamide], the pKi was 7.24.

In the case of `COc1cnc(C(=O)Nc2ccc(F)c([C@@]3(C)N=C(N)[C@@](C)(F)CC3(F)F)c2)c(C)n1` [Compound 19, N-(3-((2R,5S)-6-amino-3,3,5-trifluoro-2,5-dimethyl-2,3,4,5-tetrahydropyridin-2-yl)-4-fluorophenyl)-5-methoxy-3-methylpyrazine-2-carboxamide], the pKi was 7.49.

On to `Cc1nnc(C(=O)Nc2ccc(F)c([C@@]3(C)N=C(N)[C@@](C)(F)CC3(F)F)c2)o1` [Compound 20, N-(3-((2R,5S)-6-amino-3,3,5-trifluoro-2,5-dimethyl-2,3,4,5-tetrahydropyridin-2-yl)-4-fluorophenyl)-5-methyl-1,3,4-oxadiazole-2-carboxamide], for which the pKi is 5.80.

For the compound `Cc1noc(C(=O)Nc2ccc(F)c([C@@]3(C)N=C(N)[C@@](C)(F)CC3(F)F)c2)n1` [Compound 21, N-(3-((2R,5S)-6-amino-3,3,5-trifluoro-2,5-dimethyl-2,3,4,5-tetrahydropyridin-2-yl)-4-fluorophenyl)-3-methyl-1,2,4-oxadiazole-5-carboxamide], the pKi was 7.24.

For the compound `Cn1cnc(C(=O)Nc2ccc(F)c([C@@]3(C)N=C(N)[C@@](C)(F)CC3(F)F)c2)n1` [Compound 22, N-(3-((2R,5S)-6-amino-3,3,5-trifluoro-2,5-dimethyl-2,3,4,5-tetrahydropyridin-2-yl)-4-fluorophenyl)-1-methyl-1H-1,2,4-triazole-3-carboxamide], the pKi was 6.96.

`C[C@@]1(F)CC(F)(F)[C@@](C)(c2cc(NC(=O)c3ccn(C(F)F)n3)ccc2F)N=C1N` [Compound 23, N-(3-((2R,5R)-6-amino-3,3,5-trifluoro-2,5-dimethyl-2,3,4,5-tetrahydropyridin-2-yl)-4-fluorophenyl)-1-(difluoromethyl)-1H-pyrazole-3-carboxamide]: the negative-log Ki (pKi) was 7.15.

As for `COc1cnc(C(=O)Nc2ccc(F)c([C@@]3(C)N=C(N)[C@](C)(F)CC3(F)F)c2)cn1` [Compound 25, N-(3-((2R,5R)-6-amino-3,3,5-trifluoro-2,5-dimethyl-2,3,4,5-tetrahydropyridin-2-yl)-4-fluorophenyl)-5-methoxypyrazine-2-carboxamide], the pKi is 6.89.

On to `COc1cnc(C(=O)Nc2ccc(F)c([C@@]3(C)N=C(N)[C@](C)(F)CC3(F)F)c2)nc1` [Compound 26, N-(3-((2R,5R)-6-amino-3,3,5-trifluoro-2,5-dimethyl-2,3,4,5-tetrahydropyridin-2-yl)-4-fluorophenyl)-5-methoxypyrimidine-2-carboxamide], for which the negative logarithm of the Ki (pKi) was 6.89.

In the case of `Cc1csc(C(=O)Nc2ccc(F)c([C@@]3(C)N=C(N)[C@](C)(F)CC3(F)F)c2)n1` [Compound 27, N-(3-((2R,5R)-6-amino-3,3,5-trifluoro-2,5-dimethyl-2,3,4,5-tetrahydropyridin-2-yl)-4-fluorophenyl)-4-methylthiazole-2-carboxamide], the pKi is 6.85.
